Assay results as given in ChEMBL document CHEMBL1128809 (Bioorg Med Chem Lett, 1995).
pIC50: −log10 of the molar value.

Columns and labels:
[1] = biological target: T1, Protein kinase C beta type (Homo sapiens, UniProt P05771); assay: Inhibition of Protein kinase C beta 1
[2] = biological target: Protein kinase C delta type (Homo sapiens, UniProt Q05655); assay: Inhibition of Protein kinase C delta
[3] = biological target: Protein kinase C gamma type (Homo sapiens, UniProt P05129); assay: Inhibition of Protein kinase C gamma
[4] = biological target: Protein kinase C alpha type (Homo sapiens, UniProt P17252); assay: Inhibition of Protein kinase C alpha
[5] = biological target: Protein kinase C eta type (Homo sapiens, UniProt P24723); assay: Inhibition of Protein kinase C eta
[6] = biological target: T1, Protein kinase C beta type; assay: Inhibition of Protein kinase C beta 2
[7] = biological target: T2, Protein kinase C epsilon type (Homo sapiens, UniProt Q02156); assay: Inhibition of Protein kinase C epsilon
T2 sequence (Q02156 whole entry): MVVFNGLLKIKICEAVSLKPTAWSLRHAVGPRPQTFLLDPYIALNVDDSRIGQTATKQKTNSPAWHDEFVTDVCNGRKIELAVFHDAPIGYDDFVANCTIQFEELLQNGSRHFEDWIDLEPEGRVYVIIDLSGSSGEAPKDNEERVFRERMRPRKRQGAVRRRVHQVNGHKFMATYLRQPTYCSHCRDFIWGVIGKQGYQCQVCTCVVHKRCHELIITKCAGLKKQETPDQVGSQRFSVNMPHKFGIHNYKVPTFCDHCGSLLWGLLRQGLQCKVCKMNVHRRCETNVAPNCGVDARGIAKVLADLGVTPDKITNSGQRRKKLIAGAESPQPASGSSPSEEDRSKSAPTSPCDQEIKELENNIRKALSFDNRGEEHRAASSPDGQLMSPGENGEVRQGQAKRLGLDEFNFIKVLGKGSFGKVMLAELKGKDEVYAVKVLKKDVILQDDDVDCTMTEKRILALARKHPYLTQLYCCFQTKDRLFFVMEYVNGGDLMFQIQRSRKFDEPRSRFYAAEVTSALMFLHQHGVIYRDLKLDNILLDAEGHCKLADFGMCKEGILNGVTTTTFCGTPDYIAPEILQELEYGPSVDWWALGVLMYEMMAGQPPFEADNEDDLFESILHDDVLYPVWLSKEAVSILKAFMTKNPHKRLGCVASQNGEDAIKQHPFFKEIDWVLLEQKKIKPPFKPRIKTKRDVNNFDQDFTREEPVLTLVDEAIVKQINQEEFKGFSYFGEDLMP

[8] = biological target: T3, Protein kinase C zeta type (Homo sapiens, UniProt Q05513); assay: Inhibition of Protein kinase C zeta
T3 sequence (Q05513 whole entry): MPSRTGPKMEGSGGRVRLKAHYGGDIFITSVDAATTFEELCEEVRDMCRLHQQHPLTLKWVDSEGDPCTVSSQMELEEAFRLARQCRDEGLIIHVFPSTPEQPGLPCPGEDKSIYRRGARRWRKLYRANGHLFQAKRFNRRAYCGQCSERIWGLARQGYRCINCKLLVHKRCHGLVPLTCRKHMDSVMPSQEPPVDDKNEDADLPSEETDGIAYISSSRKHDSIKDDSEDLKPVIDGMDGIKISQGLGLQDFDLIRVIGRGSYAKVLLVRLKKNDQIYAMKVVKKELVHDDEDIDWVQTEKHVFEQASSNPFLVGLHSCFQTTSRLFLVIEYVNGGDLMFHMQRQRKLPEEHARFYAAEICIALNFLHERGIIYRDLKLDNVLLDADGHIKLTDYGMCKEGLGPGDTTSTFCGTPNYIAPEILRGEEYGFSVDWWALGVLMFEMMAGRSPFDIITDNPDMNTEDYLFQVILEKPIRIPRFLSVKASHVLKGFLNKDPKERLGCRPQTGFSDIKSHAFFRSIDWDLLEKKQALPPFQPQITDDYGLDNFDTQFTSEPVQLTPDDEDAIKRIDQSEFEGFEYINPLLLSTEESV

[9] = Stability in human plasma 2 hr after incubation expressed as percent concentration; type: ADME, cell-free; conditions: read-out: Concentration
[10] = Stability in human plasma 4 hr after incubation expressed as percent concentration; type: ADME, cell-free; conditions: read-out: Concentration

T1 sequence (P05771 whole entry): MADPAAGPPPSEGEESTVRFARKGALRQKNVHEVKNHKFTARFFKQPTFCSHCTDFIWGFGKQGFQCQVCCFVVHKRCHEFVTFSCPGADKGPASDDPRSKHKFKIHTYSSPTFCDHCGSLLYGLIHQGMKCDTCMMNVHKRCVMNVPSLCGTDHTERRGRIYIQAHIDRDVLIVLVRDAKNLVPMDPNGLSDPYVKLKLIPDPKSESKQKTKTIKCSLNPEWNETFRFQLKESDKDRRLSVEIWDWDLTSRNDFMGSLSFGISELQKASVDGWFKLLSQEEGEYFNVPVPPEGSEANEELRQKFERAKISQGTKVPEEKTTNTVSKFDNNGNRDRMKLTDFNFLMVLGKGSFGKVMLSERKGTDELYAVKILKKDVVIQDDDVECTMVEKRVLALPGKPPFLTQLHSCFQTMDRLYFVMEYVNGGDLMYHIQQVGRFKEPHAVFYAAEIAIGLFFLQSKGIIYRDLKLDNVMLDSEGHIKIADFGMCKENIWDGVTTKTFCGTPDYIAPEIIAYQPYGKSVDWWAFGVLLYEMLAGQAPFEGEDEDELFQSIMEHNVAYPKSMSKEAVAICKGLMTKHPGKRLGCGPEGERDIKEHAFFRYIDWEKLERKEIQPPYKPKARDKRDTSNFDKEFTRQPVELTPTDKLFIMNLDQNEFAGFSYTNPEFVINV
Protein kinase C delta type, sequence (Q05655 whole entry): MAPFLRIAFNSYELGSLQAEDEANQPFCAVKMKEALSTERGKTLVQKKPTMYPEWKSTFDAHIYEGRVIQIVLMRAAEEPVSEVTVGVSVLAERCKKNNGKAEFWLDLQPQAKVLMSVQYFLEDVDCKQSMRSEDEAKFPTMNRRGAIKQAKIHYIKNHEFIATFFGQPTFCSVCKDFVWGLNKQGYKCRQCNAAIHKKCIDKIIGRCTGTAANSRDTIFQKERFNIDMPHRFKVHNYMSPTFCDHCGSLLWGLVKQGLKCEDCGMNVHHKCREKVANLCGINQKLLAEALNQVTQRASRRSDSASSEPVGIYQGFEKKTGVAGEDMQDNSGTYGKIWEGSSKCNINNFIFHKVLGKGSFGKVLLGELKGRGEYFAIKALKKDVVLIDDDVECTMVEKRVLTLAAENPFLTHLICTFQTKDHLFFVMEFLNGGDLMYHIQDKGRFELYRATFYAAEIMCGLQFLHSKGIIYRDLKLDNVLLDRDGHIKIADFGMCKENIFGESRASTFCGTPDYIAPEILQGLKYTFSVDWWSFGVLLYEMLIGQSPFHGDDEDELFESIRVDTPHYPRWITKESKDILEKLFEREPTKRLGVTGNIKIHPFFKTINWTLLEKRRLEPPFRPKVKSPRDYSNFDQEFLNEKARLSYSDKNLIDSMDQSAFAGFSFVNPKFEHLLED
Protein kinase C eta type, sequence (P24723 whole entry): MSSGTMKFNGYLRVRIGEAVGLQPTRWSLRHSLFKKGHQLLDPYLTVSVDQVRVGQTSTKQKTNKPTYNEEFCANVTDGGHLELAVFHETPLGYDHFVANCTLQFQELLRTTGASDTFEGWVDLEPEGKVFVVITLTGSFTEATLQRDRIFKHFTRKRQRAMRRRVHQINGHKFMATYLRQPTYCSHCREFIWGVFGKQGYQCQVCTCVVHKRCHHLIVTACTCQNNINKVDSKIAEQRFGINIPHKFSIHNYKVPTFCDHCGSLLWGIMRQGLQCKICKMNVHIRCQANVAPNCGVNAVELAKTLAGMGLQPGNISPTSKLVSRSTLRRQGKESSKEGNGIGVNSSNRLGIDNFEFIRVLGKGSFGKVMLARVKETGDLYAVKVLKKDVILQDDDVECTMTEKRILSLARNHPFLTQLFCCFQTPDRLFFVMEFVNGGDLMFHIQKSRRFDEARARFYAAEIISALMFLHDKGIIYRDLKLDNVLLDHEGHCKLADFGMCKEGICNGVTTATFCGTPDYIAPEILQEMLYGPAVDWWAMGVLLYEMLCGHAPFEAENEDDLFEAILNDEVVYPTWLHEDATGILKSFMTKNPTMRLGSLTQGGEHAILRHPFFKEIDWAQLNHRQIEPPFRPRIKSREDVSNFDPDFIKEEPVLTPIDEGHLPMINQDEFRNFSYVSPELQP

Row | SMILES | pIC50 [1] | pIC50 [2] | pIC50 [3] | pIC50 [4] | pIC50 [5] | pIC50 [6] | pIC50 [7] | pIC50 [8] | remaining at 2 h [9] [%] | remaining at 4 h [10] [%]
1 | O=C(N[C@@H]1CCCNC[C@H]1NC(=O)c1ccc(O)cc1)c1cc(O)c(C(=O)c2c(O)cccc2C(=O)O)c(O)c1 | 6.20 | 6.66 | 6.38 | 5.49 | 7.30 | 5.92 | 6.17 | < 4.30 | – | –
2 | CN(C(=O)c1cc(O)c(C(=O)c2c(O)cccc2C(=O)O)c(O)c1)[C@H]1CCCNC[C@H]1NC(=O)c1ccc(O)cc1 | < 4.30 | 4.38 | < 4.30 | < 4.30 | 4.51 | < 4.30 | < 4.30 | < 4.30 | – | –
3 | O=C(NC[C@@H]1CCC[C@H]1NC(=O)c1ccc(O)cc1)c1cc(O)c(C(=O)c2c(O)cccc2C(=O)O)c(O)c1 | 4.77 | 6.48 | 4.34 | 4.46 | 5.64 | 5.31 | < 4.30 | < 4.30 | – | –
4 | O=C(N[C@@H]1CCC[C@H]1OCc1cc(O)c(C(=O)c2c(O)cccc2C(=O)O)c(O)c1)c1ccc(O)cc1 | 6.37 | 7.70 | 5.96 | 6.34 | 7.52 | 6.54 | 6.43 | < 4.30 | 100 | 100
5 | O=C(N[C@@H]1CCC[C@H]1OC(=O)c1cc(O)c(C(=O)c2c(O)cccc2C(=O)O)c(O)c1)c1ccc(O)cc1 | – | 9.00 | – | – | 9.00 | – | – | – | – | –

More lines, now with the values ahead:

Row | pIC50 [1] | pIC50 [2] | pIC50 [3] | pIC50 [4] | pIC50 [5] | pIC50 [6] | pIC50 [7] | pIC50 [8] | remaining at 2 h [9] [%] | remaining at 4 h [10] [%] | SMILES
6 | 8.00 | – | 7.92 | – | – | – | – | 5.17 | 88 | 103 | O=C(N[C@@H]1CNC[C@H]1OC(=O)c1cc(O)c(C(=O)c2c(O)cccc2C(=O)O)c(O)c1)c1ccc(O)cc1
7 | 6.92 | 7.52 | 7.40 | 6.66 | 7.70 | 7.15 | 7.30 | – | – | – | C[C@@]1(OC(=O)c2cc(O)c(C(=O)c3c(O)cccc3C(=O)O)c(O)c2)CCCNC[C@H]1NC(=O)c1ccc(O)cc1
8 | 7.40 | 7.70 | 6.52 | 7.40 | 7.70 | 7.52 | 6.47 | < 4.30 | – | – | O=C(N[C@@H]1CCC[C@H]1COC(=O)c1cc(O)c(C(=O)c2c(O)cccc2C(=O)O)c(O)c1)c1ccc(O)cc1
9 | 7.52 | 7.64 | 7.52 | 7.17 | 7.70 | 7.52 | – | – | – | – | O=C(N[C@@H]1CNCCC[C@H]1OC(=O)c1cc(O)c(C(=O)c2c(O)cccc2C(=O)O)c(O)c1)c1ccc(O)cc1 (racemic) [BALANOL]
10 | 8.00 | 7.80 | 8.00 | 7.52 | 8.52 | 8.00 | – | 5.23 | – | – | O=C(N[C@@H]1CNCCC[C@H]1OC(=O)c1cc(O)c(C(=O)c2c(O)cccc2C(=O)O)c(O)c1)c1ccc(O)cc1 [BALANOL]
11 | 6.66 | 7.92 | 6.48 | 6.04 | 8.52 | 6.48 | 7.10 | 5.02 | 95 | 104 | O=C(N[C@@H]1CNC[C@H]1NC(=O)c1cc(O)c(C(=O)c2c(O)cccc2C(=O)O)c(O)c1)c1ccc(O)cc1
